Measured values: ChEMBL document CHEMBL4699440, “Comprehensive review on the anti-bacterial activity of 1,2,3-triazole hybrids” (Eur J Med Chem, 2019)
Converted amounts (≈) assume the structure as drawn.

Columns and labels:
[1] = system: Staphylococcus aureus; assay: Antibacterial activity against Staphylococcus aureus MTCC 96 incubated for 24 hrs by macrodilution tube method; assay type: functional
[2] = system: Bacillus cereus; assay: Antibacterial activity against Bacillus cereus MTCC 430 incubated for 24 hrs by macrodilution tube method; assay type: functional
[3] = system: Bacillus cereus; assay: Antibacterial activity against Bacillus cereus; assay type: functional
[4] = system: Staphylococcus aureus; assay: Antibacterial activity against Staphylococcus aureus; assay type: functional
[5] = system: KB; assay: Cytotoxicity against human KB cells; assay type: cell-based; settings: Homo sapiens, KB
[6] = system: Pseudomonas aeruginosa; assay: Antibacterial activity against Pseudomonas aeruginosa ATCC 27853 incubated for 16 to 18 hrs by serial plate dilution method; assay type: functional; settings: time hrs 16-18
[7] = system: Klebsiella pneumoniae; assay: Antibacterial activity against Klebsiella pneumoniae incubated for 16 to 18 hrs by serial plate dilution method; assay type: functional; settings: time hrs 16-18
[8] = system: Talaromyces marneffei; assay: Antifungal activity against Penicillium marneffei incubated for 3 to 4 days by serial plate dilution method; assay type: functional; settings: time day 3-4
[9] = system: Aspergillus flavus; assay: Antifungal activity against Aspergillus flavus NCIM 524 incubated for 3 to 4 days by serial plate dilution method; assay type: functional; settings: time day 3-4
[10] = system: Escherichia coli; assay: Antibacterial activity against Escherichia coli ATCC 25922 incubated for 16 to 18 hrs by serial plate dilution method; assay type: functional; settings: time hrs 16-18
[11] = system: Staphylococcus aureus; assay: Antibacterial activity against methicillin-resistant Staphylococcus aureus ATCC 25923 incubated for 16 to 18 hrs by serial plate dilution method; assay type: functional; settings: time hrs 16-18
[12] = system: Trichophyton mentagrophytes; assay: Antifungal activity against Trichophyton mentagrophytes incubated for 3 to 4 days by serial plate dilution method; assay type: functional; settings: time day 3-4
[13] = system: Aspergillus fumigatus; assay: Antifungal activity against Aspergillus fumigatus NCIM 902 incubated for 3 to 4 days by serial plate dilution method; assay type: functional; settings: time day 3-4

Compound	MIC [1]	MIC [2]	MIC [3]	MIC [4]	IC50 [5]	MIC [6]	MIC [7]	MIC [8]	MIC [9]	MIC [10]	MIC [11]	MIC [12]	MIC [13]
CC1(C)CC(=O)C2=C(C1)Oc1cc3ccc(OCc4cn(-c5ccnc6cc(Cl)ccc56)nn4)cc3cc1C2c1ccc(Br)cc1 (stereo not drawn)	16 mg/L (≈ 23.1 µM)	16 mg/L (≈ 23.1 µM)											
Cc1ccc(C2C3=C(CC(C)(C)CC3=O)Oc3cc4ccc(OCc5cn(-c6ccnc7cc(Cl)ccc67)nn5)cc4cc32)cc1 (stereo not drawn)	16 mg/L (≈ 25.5 µM)	16 mg/L (≈ 25.5 µM)											
O=C1CCCC2=C1C(c1ccccc1)c1cc3cc(OCc4cn(-c5ccnc6cc(Cl)ccc56)nn4)ccc3cc1O2 (stereo not drawn)	16 mg/L (≈ 27.3 µM)	16 mg/L (≈ 27.3 µM)											
O=C1CCCC2=C1C(c1ccc(Br)cc1)c1cc3cc(OCc4cn(-c5ccnc6cc(Cl)ccc56)nn4)ccc3cc1O2 (stereo not drawn)	16 mg/L (≈ 24.1 µM)	16 mg/L (≈ 24.1 µM)											
CC(C)C[C@H](NC(=O)CNC(=O)C(C)(C)NC(=O)[C@@H](NC(=O)C(C)(C)NC(=O)[C@H](CCC(N)=O)NC(=O)[C@H](C)NC(=O)C(C)(C)NC(=O)[C@H](C)NC(=O)C(C)(C)NC(=O)[C@@H]1CCN(C(=O)C(C)(C)n2cc(-c3ccc(OC(F)(F)F)c(F)c3)nn2)C1)C(C)C)C(=O)NC(C)(C)C(=O)N1CCC[C@@H]1C(=O)N[C@H](C(=O)NC(C)(C)C(=O)NC(C)(C)C(=O)N[C@@H](CCC(N)=O)C(=O)N[C@@H](CCC(N)=O)C(=O)N[C@H](CO)Cc1ccccc1)C(C)C			1.56 mg/L (≈ 0.725 µM)	1.56 mg/L (≈ 0.725 µM)	2.9 mg/L (≈ 1.35 µM)								
CC(C)C[C@H](NC(=O)CNC(=O)C(C)(C)NC(=O)[C@@H](NC(=O)C(C)(C)NC(=O)[C@H](CCC(N)=O)NC(=O)[C@H](C)NC(=O)C(C)(C)NC(=O)[C@H](C)NC(=O)C(C)(C)NC(=O)[C@@H]1CCN(C(=O)C(C)(C)n2cc(-c3cc(F)cc(F)c3)nn2)C1)C(C)C)C(=O)NC(C)(C)C(=O)N1CCC[C@@H]1C(=O)N[C@H](C(=O)NC(C)(C)C(=O)NC(C)(C)C(=O)N[C@@H](CCC(N)=O)C(=O)N[C@@H](CCC(N)=O)C(=O)N[C@H](CO)Cc1ccccc1)C(C)C			1.56 mg/L (≈ 0.748 µM)	1.56 mg/L (≈ 0.748 µM)	2.9 mg/L (≈ 1.39 µM)								
COc1cccc(/C=N/NC(=O)c2nnn(-c3cc(C(F)(F)F)nc4c(C(F)(F)F)cccc34)c2C)c1O						6.25 mg/L (≈ 11.6 µM)	6.25 mg/L (≈ 11.6 µM)	6.25 mg/L (≈ 11.6 µM)	6.25 mg/L (≈ 11.6 µM)	6.25 mg/L (≈ 11.6 µM)	6.25 mg/L (≈ 11.6 µM)	6.25 mg/L (≈ 11.6 µM)	6.25 mg/L (≈ 11.6 µM)
COc1cccc(/C=N/NC(=O)c2nnn(-c3cc(C(F)(F)F)nc4c(C(F)(F)F)cccc34)c2C)c1						6.25 mg/L (≈ 12 µM)	6.25 mg/L (≈ 12 µM)	6.25 mg/L (≈ 12 µM)	6.25 mg/L (≈ 12 µM)	6.25 mg/L (≈ 12 µM)	6.25 mg/L (≈ 12 µM)	6.25 mg/L (≈ 12 µM)	6.25 mg/L (≈ 12 µM)
CC(C)C[C@H](NC(=O)CNC(=O)C(C)(C)NC(=O)[C@@H](NC(=O)C(C)(C)NC(=O)[C@H](CCC(N)=O)NC(=O)[C@H](C)NC(=O)C(C)(C)NC(=O)[C@H](C)NC(=O)C(C)(C)NC(=O)[C@@H]1CCN(C(=O)C(C)(C)n2cc(-c3ccc(F)cc3F)nn2)C1)C(C)C)C(=O)NC(C)(C)C(=O)N1CCC[C@@H]1C(=O)N[C@H](C(=O)NC(C)(C)C(=O)NC(C)(C)C(=O)N[C@@H](CCC(N)=O)C(=O)N[C@@H](CCC(N)=O)C(=O)N[C@H](CO)Cc1ccccc1)C(C)C			1.56 mg/L (≈ 0.748 µM)	1.56 mg/L (≈ 0.748 µM)	2.9 mg/L (≈ 1.39 µM)								
Cc1ccc(C2C3=C(CCCC3=O)Oc3cc4ccc(OCc5cn(-c6ccnc7cc(Cl)ccc67)nn5)cc4cc32)cc1 (stereo not drawn)	16 mg/L (≈ 26.7 µM)	16 mg/L (≈ 26.7 µM)											
Cc1c(C(=O)N/N=C/c2ccc(O)cc2)nnn1-c1cc(C(F)(F)F)nc2c(C(F)(F)F)cccc12						6.25 mg/L (≈ 12.3 µM)	6.25 mg/L (≈ 12.3 µM)	6.25 mg/L (≈ 12.3 µM)	6.25 mg/L (≈ 12.3 µM)	6.25 mg/L (≈ 12.3 µM)	6.25 mg/L (≈ 12.3 µM)	6.25 mg/L (≈ 12.3 µM)	6.25 mg/L (≈ 12.3 µM)
Cc1ccsc1/C=N/NC(=O)c1nnn(-c2cc(C(F)(F)F)nc3c(C(F)(F)F)cccc23)c1C						6.25 mg/L (≈ 12.2 µM)	6.25 mg/L (≈ 12.2 µM)	6.25 mg/L (≈ 12.2 µM)	6.25 mg/L (≈ 12.2 µM)	6.25 mg/L (≈ 12.2 µM)	6.25 mg/L (≈ 12.2 µM)	6.25 mg/L (≈ 12.2 µM)	6.25 mg/L (≈ 12.2 µM)
Cc1c(C(=O)N/N=C/c2ccc(-c3ccccc3)cc2)nnn1-c1cc(C(F)(F)F)nc2c(C(F)(F)F)cccc12						6.25 mg/L (≈ 11 µM)	6.25 mg/L (≈ 11 µM)	6.25 mg/L (≈ 11 µM)	6.25 mg/L (≈ 11 µM)	6.25 mg/L (≈ 11 µM)	6.25 mg/L (≈ 11 µM)	6.25 mg/L (≈ 11 µM)	6.25 mg/L (≈ 11 µM)
CC(C)C[C@H](NC(=O)CNC(=O)C(C)(C)NC(=O)[C@@H](NC(=O)C(C)(C)NC(=O)[C@H](CCC(N)=O)NC(=O)[C@H](C)NC(=O)C(C)(C)NC(=O)[C@H](C)NC(=O)C(C)(C)NC(=O)[C@@H]1CCN(C(=O)C(C)(C)n2cc(-c3cc(C(F)(F)F)cc(C(F)(F)F)c3)nn2)C1)C(C)C)C(=O)NC(C)(C)C(=O)N1CCC[C@@H]1C(=O)N[C@H](C(=O)NC(C)(C)C(=O)NC(C)(C)C(=O)N[C@@H](CCC(N)=O)C(=O)N[C@@H](CCC(N)=O)C(=O)N[C@H](CO)Cc1ccccc1)C(C)C			1.56 mg/L (≈ 0.714 µM)	1.56 mg/L (≈ 0.714 µM)	2.9 mg/L (≈ 1.33 µM)								
CC(C)C[C@H](NC(=O)CNC(=O)C(C)(C)NC(=O)[C@@H](NC(=O)C(C)(C)NC(=O)[C@H](CCC(N)=O)NC(=O)[C@H](C)NC(=O)C(C)(C)NC(=O)[C@H](C)NC(=O)C(C)(C)NC(=O)[C@@H]1CCN(C(=O)C(C)(C)n2cc(-c3ccc(C(F)(F)F)cc3)nn2)C1)C(C)C)C(=O)NC(C)(C)C(=O)N1CCC[C@@H]1C(=O)N[C@H](C(=O)NC(C)(C)C(=O)NC(C)(C)C(=O)N[C@@H](CCC(N)=O)C(=O)N[C@@H](CCC(N)=O)C(=O)N[C@H](CO)Cc1ccccc1)C(C)C			12.5 mg/L (≈ 5.9 µM)	12.5 mg/L (≈ 5.9 µM)	2.9 mg/L (≈ 1.37 µM)								
CC(C)C[C@H](NC(=O)CNC(=O)C(C)(C)NC(=O)[C@@H](NC(=O)C(C)(C)NC(=O)[C@H](CCC(N)=O)NC(=O)[C@H](C)NC(=O)C(C)(C)NC(=O)[C@H](C)NC(=O)C(C)(C)NC(=O)[C@@H]1CCN(C(=O)C(C)(C)n2cc(-c3ccccc3)nn2)C1)C(C)C)C(=O)NC(C)(C)C(=O)N1CCC[C@@H]1C(=O)N[C@H](C(=O)NC(C)(C)C(=O)NC(C)(C)C(=O)N[C@@H](CCC(N)=O)C(=O)N[C@@H](CCC(N)=O)C(=O)N[C@H](CO)Cc1ccccc1)C(C)C			1.56 mg/L (≈ 0.761 µM)	1.56 mg/L (≈ 0.761 µM)	2.9 mg/L (≈ 1.42 µM)								
